Results published in the supplement of paper PMC5770543.
± gives the standard deviation.

Assays:
[1] = test system: Plasmodium falciparum 3D7; test: % inhibition of schizont-to-ring transition vs DMSO; higher = more inhibition
Summary of the method: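 Schizont-to-ring transition inhibition is the formation of new rings relative to vehicle controls. Tightly synchronised P. falciparum schizonts at about 40–42 hours post-invasion (1% parasitemia, 2.5% hematocrit, AlbuMAX-supplemented RPMI) were treated with compound at 1, 3 or 10 µM, alongside vehicle and positive controls. After glutaraldehyde fixation, Triton permeabilisation and Hoechst 33342 staining, at least 100,000 events were counted by flow cytometry, and values are the mean of three experiments.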

[2] = test system: Toxoplasma gondii RH tachyzoites; test: % growth inhibition vs DMSO (48 h luciferase); higher = more inhibition; conditions: 10 µM;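 note: tested in triplicate wells of 96-well plates on confluent HFF monolayers, with 1% DMSO wells as negative control in four replicates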
[3] = test system: Plasmodium falciparum 3D7; test: EC50 growth inhibition (60 h, SYBR Green); conditions: stage: ring-stage start

Cc1cc(Nc2ccc3ccccc3c2)n2ncnc2n1
% inhibition of schizont-to-ring transition ([1]; 1 µM): 57.1%
% inhibition of schizont-to-ring transition ([1]; 3 µM): 61.7%
% inhibition of schizont-to-ring transition ([1]; 10 µM): 61.5%
% growth inhibition [2]: 24.1 ± 23%
EC50 growth inhibition [3]: 53.7 nM

CCN(CC)CCNc1ccnc2cc3ccccc3cc12
% inhibition of schizont-to-ring transition ([1]; 1 µM): 23.6%
% inhibition of schizont-to-ring transition ([1]; 3 µM): 49%
% inhibition of schizont-to-ring transition ([1]; 10 µM): 53.2%
% growth inhibition [2]: 32.4 ± 7.3%
EC50 growth inhibition [3]: 192 nM

CCOC(=O)c1cnc2c(C)cccc2c1Nc1ccc(C(C)=O)cc1
% inhibition of schizont-to-ring transition ([1]; 1 µM): 28.3%
% inhibition of schizont-to-ring transition ([1]; 3 µM): 45.9%
% inhibition of schizont-to-ring transition ([1]; 10 µM): 51.5%
% growth inhibition [2]: 79.3 ± 2.5%
EC50 growth inhibition [3]: 550 nM

CCCc1c(C)nc2ccc(Br)cc2c1O
% inhibition of schizont-to-ring transition ([1]; 1 µM): 17%
% inhibition of schizont-to-ring transition ([1]; 3 µM): 24%
% inhibition of schizont-to-ring transition ([1]; 10 µM): 44.8%
% growth inhibition [2]: 39.6 ± 25%
EC50 growth inhibition [3]: 4280 nM

Cc1ccc(OCCCCCCNCCO)c(C)c1
% inhibition of schizont-to-ring transition ([1]; 1 µM): 6.39%
% inhibition of schizont-to-ring transition ([1]; 3 µM): 6.91%
% inhibition of schizont-to-ring transition ([1]; 10 µM): 13.8%
% growth inhibition [2]: 76.2 ± 4.2%
EC50 growth inhibition [3]: 2870 nM

CC(C)(C)CC(C)(C)NCC(O)COc1ccc2c(c1)CCC2 (stereo not given)
% inhibition of schizont-to-ring transition ([1]; 1 µM): 17.3%
% inhibition of schizont-to-ring transition ([1]; 3 µM): 26.1%
% inhibition of schizont-to-ring transition ([1]; 10 µM): 47.6%
% growth inhibition [2]: 61.6 ± 1.5%
EC50 growth inhibition [3]: 4380 nM

CC(C)CCNCC(O)Cn1c2ccccc2c2ccccc21 (stereo not given)
% inhibition of schizont-to-ring transition ([1]; 1 µM): 9.61%
% inhibition of schizont-to-ring transition ([1]; 3 µM): 49.4%
% inhibition of schizont-to-ring transition ([1]; 10 µM): 71.7%
% growth inhibition [2]: 77.4 ± 2.5%
EC50 growth inhibition [3]: 520 nM

Nc1ccc(-c2nc3cc(Cc4ccc5[nH]c(-c6ccc(N)cc6)nc5c4)ccc3[nH]2)cc1
% inhibition of schizont-to-ring transition ([1]; 1 µM): 51.3%
% inhibition of schizont-to-ring transition ([1]; 3 µM): 70.1%
% inhibition of schizont-to-ring transition ([1]; 10 µM): 76%
% growth inhibition [2]: 59.1 ± 11%
EC50 growth inhibition [3]: 218 nM

CC(=O)c1sc(NC(=O)Nc2ccc(C)cc2C)nc1C
% inhibition of schizont-to-ring transition ([1]; 1 µM): 10.5%
% inhibition of schizont-to-ring transition ([1]; 3 µM): 30.8%
% inhibition of schizont-to-ring transition ([1]; 10 µM): 49.7%
% growth inhibition [2]: 67.5 ± 3.4%
EC50 growth inhibition [3]: 1780 nM

COc1ccc(CCN2CCC(CN(C)Cc3cnn(-c4ccccc4)c3)CC2)cc1
% inhibition of schizont-to-ring transition ([1]; 1 µM): 15.4%
% inhibition of schizont-to-ring transition ([1]; 3 µM): 48.1%
% inhibition of schizont-to-ring transition ([1]; 10 µM): 63.7%
% growth inhibition [2]: 63.1 ± 4.5%
EC50 growth inhibition [3]: 806 nM

CCOc1ccc(C2N(C)c3ccccc3N2C)cc1
% inhibition of schizont-to-ring transition ([1]; 1 µM): 15.8%
% inhibition of schizont-to-ring transition ([1]; 3 µM): 20.8%
% inhibition of schizont-to-ring transition ([1]; 10 µM): 40.5%
% growth inhibition [2]: 49.6 ± 43%
EC50 growth inhibition [3]: 5840 nM

COc1ccc2nc(C)cc(Nc3ccccc3O)c2c1
% inhibition of schizont-to-ring transition ([1]; 1 µM): 20.4%
% inhibition of schizont-to-ring transition ([1]; 3 µM): 41.3%
% inhibition of schizont-to-ring transition ([1]; 10 µM): 66.3%
% growth inhibition [2]: 22.7 ± 2.9%
EC50 growth inhibition [3]: 438 nM

O=c1cc(NC2CCN(CCCc3ccccc3)CC2)c2cc(Cl)ccc2o1
% inhibition of schizont-to-ring transition ([1]; 1 µM): 61.1%
% inhibition of schizont-to-ring transition ([1]; 3 µM): 66.7%
% inhibition of schizont-to-ring transition ([1]; 10 µM): 68.9%
% growth inhibition [2]: 22 ± 19%
EC50 growth inhibition [3]: 396 nM

Cc1cc(C)cc(Nc2cc(C)nc3nc(C(F)(F)F)nn23)c1
% inhibition of schizont-to-ring transition ([1]; 1 µM): 46.6%
% inhibition of schizont-to-ring transition ([1]; 3 µM): 56.5%
% inhibition of schizont-to-ring transition ([1]; 10 µM): 59.8%
% growth inhibition [2]: 53.7 ± 4%
EC50 growth inhibition [3]: 56.8 nM

COc1cc2cc(C(=O)Nc3ccccc3)c(N)nc2cc1OC
% inhibition of schizont-to-ring transition ([1]; 1 µM): 8.51%
% inhibition of schizont-to-ring transition ([1]; 3 µM): 35.6%
% inhibition of schizont-to-ring transition ([1]; 10 µM): 57.9%
% growth inhibition [2]: 78.1 ± 1.2%
EC50 growth inhibition [3]: 847 nM

COc1ccc(CNC(=O)c2cc3c(=O)n4ccccc4nc3n(CCc3ccccc3)c2=N)cc1
% inhibition of schizont-to-ring transition ([1]; 1 µM): 9.38%
% inhibition of schizont-to-ring transition ([1]; 3 µM): 17.6%
% inhibition of schizont-to-ring transition ([1]; 10 µM): 47%
% growth inhibition [2]: 56.9 ± 14%
EC50 growth inhibition [3]: 2650 nM

CCN(CC)CCNc1ccnc2cc(Cl)ccc12
% inhibition of schizont-to-ring transition ([1]; 1 µM): 73.3%
% inhibition of schizont-to-ring transition ([1]; 3 µM): 75.3%
% inhibition of schizont-to-ring transition ([1]; 10 µM): 77.3%
% growth inhibition [2]: 45.2 ± 3.8%
EC50 growth inhibition [3]: 21.1 nM

CCOc1ccc(Nc2ccnc3cc(Cl)ccc23)cc1
% inhibition of schizont-to-ring transition ([1]; 1 µM): 23.3%
% inhibition of schizont-to-ring transition ([1]; 3 µM): 27.2%
% inhibition of schizont-to-ring transition ([1]; 10 µM): 30%
% growth inhibition [2]: 64.1 ± 7.2%
EC50 growth inhibition [3]: 3740 nM

c1ccc2cc3c(Nc4ccc(N5CCOCC5)cc4)ccnc3cc2c1
% inhibition of schizont-to-ring transition ([1]; 1 µM): 36.9%
% inhibition of schizont-to-ring transition ([1]; 3 µM): 52.5%
% inhibition of schizont-to-ring transition ([1]; 10 µM): 60.8%
% growth inhibition [2]: 60.2 ± 14%
EC50 growth inhibition [3]: 2510 nM

O=C(CCl)NCCOc1ccc(Cl)cc1Cl
% inhibition of schizont-to-ring transition ([1]; 1 µM): 12.1%
% inhibition of schizont-to-ring transition ([1]; 3 µM): 24.7%
% inhibition of schizont-to-ring transition ([1]; 10 µM): 43.1%
% growth inhibition [2]: 66.2 ± 5.8%
EC50 growth inhibition [3]: 717 nM

COc1ccc(-c2cc(=O)oc3c4c(ccc23)OCN(Cc2ccc(F)cc2)C4)cc1
% inhibition of schizont-to-ring transition ([1]; 1 µM): < 0%
% inhibition of schizont-to-ring transition ([1]; 3 µM): 10%
% inhibition of schizont-to-ring transition ([1]; 10 µM): 48.3%
% growth inhibition [2]: 63.1 ± 3.1%
EC50 growth inhibition [3]: 4110 nM

C=CCc1c(C)nc2ccccc2c1O
% inhibition of schizont-to-ring transition ([1]; 1 µM): 27.3%
% inhibition of schizont-to-ring transition ([1]; 3 µM): 29.6%
% inhibition of schizont-to-ring transition ([1]; 10 µM): 40.5%
% growth inhibition [2]: 72.7 ± 2.5%
EC50 growth inhibition [3]: 2260 nM

Cn1c(=O)n(C)c2cc(CNCCNc3ccnc4cc(Cl)ccc34)ccc21
% inhibition of schizont-to-ring transition ([1]; 1 µM): 38.4%
% inhibition of schizont-to-ring transition ([1]; 3 µM): 37.2%
% inhibition of schizont-to-ring transition ([1]; 10 µM): 33.7%
% growth inhibition [2]: 25.7 ± 41%
EC50 growth inhibition [3]: 64.8 nM

CN(N=O)C1=C(NC2CCCCC2)C(=O)c2ccccc2C1=O
% inhibition of schizont-to-ring transition ([1]; 1 µM): 33.3%
% inhibition of schizont-to-ring transition ([1]; 3 µM): 57.9%
% inhibition of schizont-to-ring transition ([1]; 10 µM): 65.4%
% growth inhibition [2]: 57.2 ± 5.8%
EC50 growth inhibition [3]: 1520 nM

CCN(CC)CCNc1ncnc2c1[nH]c1ccc(Cl)cc12
% inhibition of schizont-to-ring transition ([1]; 1 µM): 16.1%
% inhibition of schizont-to-ring transition ([1]; 3 µM): 52%
% inhibition of schizont-to-ring transition ([1]; 10 µM): 66.5%
% growth inhibition [2]: 23.3 ± 2.6%
EC50 growth inhibition [3]: 230 nM

CC(C)(C)c1ccc(C2CC3=Nc4ccccc4N(C(=O)c4ccccc4Cl)C(c4ccc(F)cc4)C3=C(O)C2)cc1 (stereo not given)
% inhibition of schizont-to-ring transition ([1]; 1 µM): < 0%
% inhibition of schizont-to-ring transition ([1]; 3 µM): 5.12%
% inhibition of schizont-to-ring transition ([1]; 10 µM): 41.6%
% growth inhibition [2]: 68.4 ± 10%
EC50 growth inhibition [3]: 3410 nM

CCCCOC(=O)c1ccc(Nc2cc(C)nc3ccc(OC)cc23)cc1
% inhibition of schizont-to-ring transition ([1]; 1 µM): 29%
% inhibition of schizont-to-ring transition ([1]; 3 µM): 59.5%
% inhibition of schizont-to-ring transition ([1]; 10 µM): 65.9%
% growth inhibition [2]: 69 ± 12%
EC50 growth inhibition [3]: 248 nM

O=C(CCc1ccccc1)c1ccccc1OCC(O)CN1CCCCC1 (stereo not given)
% inhibition of schizont-to-ring transition ([1]; 1 µM): 19%
% inhibition of schizont-to-ring transition ([1]; 3 µM): 44.6%
% inhibition of schizont-to-ring transition ([1]; 10 µM): 73.3%
% growth inhibition [2]: 66.1 ± 15%
EC50 growth inhibition [3]: 912 nM

COc1ccc(C=C2SC(=N)N(c3ccccc3OC)C2=O)cc1
% inhibition of schizont-to-ring transition ([1]; 1 µM): 19.9%
% inhibition of schizont-to-ring transition ([1]; 3 µM): 35.6%
% inhibition of schizont-to-ring transition ([1]; 10 µM): 49.7%
% growth inhibition [2]: 58.7 ± 3.4%
EC50 growth inhibition [3]: 1370 nM

CC1CCCCN1CCCNC(=O)c1ccc2c(c1)sc1nc(-c3ccc(F)cc3)cn12 (stereo not given)
% inhibition of schizont-to-ring transition ([1]; 1 µM): 15.8%
% inhibition of schizont-to-ring transition ([1]; 3 µM): 61.1%
% inhibition of schizont-to-ring transition ([1]; 10 µM): 73.1%
% growth inhibition [2]: 48.7 ± 9.3%
EC50 growth inhibition [3]: 400 nM

O=C(NCc1ccco1)C1CCN(S(=O)(=O)c2ccc(Br)cc2)CC1
% inhibition of schizont-to-ring transition ([1]; 1 µM): 14.5%
% inhibition of schizont-to-ring transition ([1]; 3 µM): 30.4%
% inhibition of schizont-to-ring transition ([1]; 10 µM): 54.8%
% growth inhibition [2]: 52.8 ± 11%
EC50 growth inhibition [3]: 397 nM

O=C(Nc1ccc(-c2nc3cc4ccccc4cc3[nH]2)cc1)c1cccc(Br)c1
% inhibition of schizont-to-ring transition ([1]; 1 µM): 10.2%
% inhibition of schizont-to-ring transition ([1]; 3 µM): 38.5%
% inhibition of schizont-to-ring transition ([1]; 10 µM): 61.9%
% growth inhibition [2]: 50.3 ± 8.7%
EC50 growth inhibition [3]: 4310 nM
